Reference: patent publication US10800732B2, “Substituted malonamides and their use as antibacterial drugs” (National Taiwan University, priority 2015, dated 2020)
Values after ≈ are worked out from the molar mass of the structure shown. Read-outs that look alike come from different tables or passages of the source.

Experiments:
[1] = tested on: MSSA ATCC 29213; test: MIC, MSSA ATCC 29213; assay type: cell-based, Staphylococcus aureus; settings: Table 6
[2] = tested on: S. lugdunesis (NTUH isolate); test: MIC, S. lugdunesis; assay type: cell-based
[3] = tested on: Bacillus subtilis BCRC 10255; test: MIC, Bacillus subtilis; assay type: cell-based
[4] = tested on: MRSA (ATCC 43300); test: Minimal biofilm eradication concentration, MRSA in the biofilm; assay type: cell-based, methicillin-resistant Staphylococcus aureus; settings: MRSA (ATCC 43300) in the biofilm
Protocol: A biofilm is composed of attached microorganisms enclosed in an extracellular polymeric substance matrix. Bacteria embedded in the biofilm are protected from antibiotic-mediated killing and the immune response. Reports have shown that biofilm formation is an important factor contributing to S. aureus infections of the skin, lung and indwelling medical devices such as catheters. Thus, the effect of SC5005 on MRSA in a biofilm was assayed.

[5] = tested on: MRSA (ATCC 43300); test: MIC, MRSA ATCC 43300; assay type: cell-based, methicillin-resistant Staphylococcus aureus; settings: MRSA (ATCC 43300)
[6] = tested on: S. aureus NCTC 8325; test: Biosynthesis of macromolecules (3H precursor incorporation); assay type: cell-based, Staphylococcus aureus; settings: 4×MIC for 1 h
Protocol: FIG. 5. Effect of SC5005 and SC5035 on the biosynthesis of macromolecules in S. aureus. […] Meanwhile, ofloxacin (1 mg/L), rifampicin (1 mg/L), erythromycin (2 mg/L), and vancomycin (2 mg/L) were used as control inhibitors for the biosynthesis of DNA, RNA, protein and cell wall, respectively. Data are means of three independent experiments. Error bars represent the SD.
To investigate the mode of action of SC5005, a new derivative, SC5035, with better selectivity of antibacterial activity over cytotoxicity was included in the assays. First, the impacts of these two compounds on the biosynthesis of important macromolecules, including DNA, RNA, protein and cell wall, in S. aureus NCTC 8325 were assessed. Bacteria cells were incubated with [^3H]thymidine to assess DNA synthesis, [^3H] uridine to assess RNA synthesis, [^3H] leucine to assess protein synthesis, and [^3H] N-Acetyl-D-glucosamine to assess cell wall synthesis. The ofloxacin, rifampicin, erythromycin and vancomycin were used as control inhibitor for DNA, RNA, protein, and cell wall biosynthesis, respectively. Inhibition of biosynthesis pathway was determined by a reduction in the radial isotope signal of bacteria.

[7] = tested on: S. aureus NCTC 8325; test: Intracellular ATP leakage (ATPlite one-step); assay type: cell-based, Staphylococcus aureus; settings: 4×MIC for 15 min
Protocol: FIG. 6. Intracellular ATP leakage of S. aureus treated with SC5005, SC5035 and antibiotics. […] Data was presented as percentage of intracellular ATP level to that of untreated bacteria cells (considered as 100%). Bars represent the mean, and error bars represent the SD (n=3). ***: p-value <0.001
To investigate whether SC5005 and SC5035 also act on bacterial cell membrane, intracellular ATP levels of S. aureus treated with SC5005, SC5035 and antibiotics for 15 min was determined by using ATPlite one-step assay kit.

[8] = tested on: S. aureus NCTC 8325; test: Membrane integrity (SYTO 9 / propidium iodide staining); assay type: cell-based, Staphylococcus aureus; settings: 4×MIC (Triton X-100: 10%) for 15 minutes
Description: FIG. 7. Membrane integrity of S. aureus after SC5005, SC5035 and five common antibiotics treatment. […] SYTO 9, a green fluorescence dye, stains chromosome of all bacteria cells, regardless of the membrane integrity. In contrast, propidium iodide (PI), a red fluorescence dye, only stains cell with damaged membrane. Thus, bacteria cell with intact membrane can only be stained by SYTO 9, and cell with perforated membrane will be stained by both fluorescence dyes, showing a yellow color in merged images.
To further validate the action mechanism of SC5005 and SC5035, two fluorescence dyes were used for evaluation of membrane integrity of drug treated S. aureus. The propidium iodide dye only stains cells with perforated membrane, while the SYTO 9 stains all cells in spite of membrane integrity.

[9] = tested on: S. aureus NCTC 8325; test: Transmission electron microscopy of cell membrane; assay type: cell-based, Staphylococcus aureus; settings: 15 min treatment, 100,000 magnifications
Protocol: FIG. 8. Transmission electron microscopy image of S. aureus after SC5005 treatment. S. aureus NCTC 8325 was treated with (A) mock or (B) SC5005 for 15 min followed by glutaraldehyde (2.5%) fixation and osimium tetraoxide (1%) staining. The membrane integrity was then observed with transmission electron microscopy at 100,000× magnification. The outer black ring marked with CW represents cell wall, and the inner black ring marked with CM represents cell membrane. The arrow points the pore formed in S. aureus cell membrane.
To investigate how SC5005 changes membrane permeability of S. aureus, bacteria cells were treated with SC5005 for 15 min followed by glutaraldehyde (2.5%) fixation and osimium tetraoxide (1%) staining. The membrane of bacteria was then observed by Transmission electron microscopy (TEM) at 100,000 magnifications (FIG. 8). The outer clear black circle is cell wall of S. aureus, and the inner clear black circle is cell membrane of S. aureus. These two circles of control treated S. aureus remain intact, and the cell membrane is undamaged.

[10] = tested on: human red blood cells; test: Hemolytic activity; assay type: cell-based
Protocol: FIG. 9. Hemolytic activities of SC5005 and SC5035 on human red blood cell. Human red blood cells were incubated with SC5005 (A) and SC5035 (B) for 1 h followed by measuring the absorption of RBC released hemoglobin at 540 nm with microplate reader. Cell treated with 1% triton X-100 serves as positive control (P.C.; 100% hemolysis), and those treated with normal saline serves as negative control (N.C.) Bars represent the mean, and error bars represent the SD (n=3).
As data shown above, SC5005 and SC5035 can kill bacteria via forming pore in bacterial membrane. To see whether the pore-forming activity of these two compounds is specific for bacterial membrane, the hemolytic activities of these two agents on human red blood cells were accessed.

[11] = tested on: MRSA (ATCC 33592); test: Survival of MRSA-infected C57BL/6 mice, intraperitoneal administration; settings: surviving mice, 10 mg/kg
Protocol: (A) Effect of intraperitoneal administration of SC5005 on the survival of MRSA-infected mice. Female C57BL/6 mice were inoculated intraperitoneally with 5×10^4 CFU of MRSA (ATCC 33592). Infected mice received intraperitoneal injection of 1 mg/kg (filled inverted triangles), 3 mg/kg (filled triangles) and 10 mg/kg (filled squares) SC5005 or vehicle (mock) (filled circles) once per day for three consecutive days. Survival rates, as represented by Kaplan-Meier curves, are shown for the mock and SC5005 treatment groups. *P<0.05, for the difference between treated groups and the control group. (B) Body weight changes in individual vehicle or SC5005-treated MRSA-infected mice. Each line represents an individual mouse. The black lines indicate mice that survived until the end of the study and the grey lines indicate mice that were euthanized during the study.
To further evaluate the therapeutic potential of SC5005 against MRSA infection, inbred C57BL/6 mice were intraperitoneally injected with a lethal dose (5×10^4 CFU) of MRSA (ATCC 33592), followed by intraperitoneal administration of vehicle control or SC5005 (1 mg/kg, 3 mg/kg or 10 mg/kg) at 1 h, 24 h and 48 h post-infection (N=5 for each group).

[12] = tested on: Escherichia coli ATCC 25922; test: MIC, Escherichia coli; assay type: cell-based; settings: ATCC25922
[13] = tested on: Salmonella Typhimurium ATCC 14028; test: MIC, Salmonella Typhimurium; assay type: cell-based; settings: Salmonella enterica
[14] = tested on: Acinetobacter baumannii BCRC 80276; test: MIC, Acinetobacter baumannii; assay type: cell-based; settings: BCRC80276

Compound: O=C(Nc1ccc(Cl)c(C(F)(F)F)c1)C(CCCl)C(=O)Nc1ccc(Cl)c(C(F)(F)F)c1 [SC5005]
- MIC [1]: 0.5 µg/mL (≈ 0.958 µM)
- MIC [2]: 0.5 µg/mL (≈ 0.958 µM)
- MIC [3]: 0.5 µg/mL (≈ 0.958 µM)
- MBEC [4]: 16 mg/L
- MIC [5]: 0.5 µg/mL (≈ 0.958 µM)
- incorporation signal in DNA, RNA, protein and cell wall biosynthesis [6]: lower signal in all four macromolecule biosynthesis pathway
- intracellular ATP levels [7]: significantly dropped
- propidium iodide staining (membrane integrity) [8]: can be stained by propidium iodide
- pore formation in cell membrane (TEM) [9]: a pore was observed in the membrane of most bacteria cells
- hemolysis of RBC [10]: no significant hemolysis
- time for body weight to return to pre-infection levels [11]: 2 to 5 days

Compound: O=C(Nc1ccc(Cl)c(C(F)(F)F)c1)Nc1ccc(Cl)c(C(F)(F)F)c1 [SC78]
- MIC ([2]; read-out: MIC): 0.25 µg/mL (≈ 0.599 µM)
- MIC ([3]; BCRC10255, read-out: MIC): 0.25 µg/mL (≈ 0.599 µM)
- MIC [12]: > 64 µg/mL
- MIC [13]: > 64 µg/mL
- MIC [14]: > 64 µg/mL
